Measured values: paper PMC8667612 (Journal of medicinal chemistry, 2021)
Where “and” joins values, the source holds several entries; their conditions need not be identical. Equal entries are not always repeated.

Assays:
N. fowleri CYP51 [1] = molecular target: T1, N. fowleri CYP51 (Naegleria fowleri, UniProt A0A6A5BCR7, E4K/I5A/S2A, form not given); type: binding; conditions: Type I spectral response, ~2 μM P450
N. fowleri CYP51 [2] = molecular target: T1, N. fowleri CYP51; type: biochemical; conditions: 0.5 μM P450, 60 s at 37 °C, sterol 3–50 μM
N. fowleri CYP51 [3] = molecular target: T1, N. fowleri CYP51
N. fowleri trophozoites = assay: N. fowleri cellular growth inhibition assay; type: cell-based; conditions: Naegleria fowleri, 96 h, read-out: minimal inhibitory concentration (MIC)
[4] = Blood–brain permeability assay, multiple oral doses; type: in vivo, BALB/c mice; conditions: mice, oral gavage 25 mg/kg twice a day for 5 days, samples 4 h after each administration
[5] = cited from earlier work

Row | SMILES | low- to high-spin state transition in the heme iron (N. fowleri CYP51 [1]) [%] | concentration giving complete inhibition of N. fowleri CYP51 activity (N. fowleri CYP51 [3]) [µM] | further results
1 | C=C(CC[C@@H](C)[C@H]1CC[C@@]2(C)C3=C(CC[C@]12C)[C@@]1(C)CC[C@H](O)[C@@H](C)[C@@H]1CC3)C(C)C [obtusifoliol] | 90 |  | kcat (N. fowleri CYP51 [2]): 0.433 s⁻¹
2 | CC(C)=CCC[C@@H](C)[C@H]1CC[C@@]2(C)C3=C(CC[C@]12C)[C@@]1(C)CC[C@H](O)C(C)(C)[C@@H]1CC3 [lanosterol] | 70 |  | kcat (N. fowleri CYP51 [2]): 1.07 s⁻¹
3 | O=C(N[C@@H](Cn1ccnc1)c1ccc(-c2ccc(F)cc2)cc1F)c1ccc(-c2nnc(-c3ccccc3)o2)cc1 [VFV, (R)-N-(1-(3,4’-difluoro-[1,1’-biphenyl]-4-yl)-2-(1H-imidazol-1-yl)-ethyl)-4-(5-phenyl-1,3,4-oxadiazol-2-yl)benzamide] |  | 6.0 | 
4 | O=C(N[C@@H](Cn1ccnc1)c1c(F)cc(-c2ccc(F)cc2)cc1F)c1ccc(-c2nnc(-c3ccccc3)o2)cc1 [F-VFV, (R)-N-(2-(1H-imidazol-1-yl)-1-(3,4’,5-trifluoro-[1,1’-biphenyl]-4-yl)ethyl)-4-(5-phenyl-1,3,4-oxadiazol-2-yl)benzamide] |  | 3.0 | MIC (N. fowleri trophozoites): 3.3 µM and 1.9 µg/mL; average concentration in the brain [4]: 2.2 ± 0.2 µM; NOAEL [5]: > 200 mg/kg
5 | CC[C@@H]([C@H](C)O)n1ncn(-c2ccc(N3CCN(c4ccc(OC[C@@H]5CO[C@@](Cn6cncn6)(c6ccc(F)cc6F)C5)cc4)CC3)cc2)c1=O [posaconazole, reference compound] |  | 2.0 | 
6 | O=C(N[C@@H](Cn1ccnc1)c1ccc(Cl)cc1Cl)c1ccc(-c2nnc(-c3ccccc3)o2)cc1 [VNI, (R)-N-(1-(2,4-dichlorophenyl)-2-(1H-imidazol-1-yl)-ethyl)-4-(5-phenyl-1,3,4-oxadiazol-2-yl)benzamide] |  | 50 | 
7 | O=C(N[C@@H](Cn1ccnc1)c1ccc(Cl)cc1Cl)c1ccc(-c2nnc(-c3ccc(F)c(F)c3)o2)cc1 [FF-VNI, (R)-N-(1-(2,4-dichlorophenyl)-2-(1H-imidazol-1-yl)-ethyl)-4-(5-(3,4-difluorophenyl)-1,3,4-oxadiazol-2-yl)-benzamide] |  | 6 | MIC (N. fowleri trophozoites): 2.7 µM and 1.5 µg/mL; average concentration in the brain [4]: 3.5 ± 0.3 µM; NOAEL [5]: > 200 mg/kg
8 | CC(C)=CCC[C@@H](C)[C@H]1CC[C@@]2(C)[C@@H]3CC[C@H]4C(C)(C)[C@@H](O)CC[C@@]45C[C@@]35CC[C@]12C [cycloartenol] | 25 |  | 
9 | CC(C)=CCC[C@@H](C)[C@H]1CC[C@@]2(C)C3=C(CC[C@]12C)[C@@]1(C)CC[C@H](O)[C@H](C)[C@@H]1CC3 [norlanosterol] | 94 |  | 
10 | O=C(N[C@@H](Cn1ccnc1)c1ccc(Cl)cc1Cl)c1ccc(-c2nnc(-c3ccc(C(F)(F)F)c(F)c3)o2)cc1 [FCF3-VNI, (R)-N-(1-(2,4-dichlorophenyl)-2-(1H-imidazol-1-yl)ethyl)-4-(5-(3-fluoro-4-(trifluoromethyl)phenyl)-1,3,4-oxadiazol-2-yl)benzamide] |  | > 50 | 
